Series [1] has as its system A549. Briefly: Antiproliferative activity against human A549 cells cultured as 3D spheroids assessed as decrease in multicellular tumor spheroid size at 20 uM treated for 5 days by live-cell phase-contrast microscopy. The class given is functional, cell-based. To be noted: time 5.0 day.
In series [2] the test system is A549. Briefly: Induction of autophagy in human A549 cells assessed as downregulation of p62 protein expression at 3 to 9 uM incubated for 24 hrs by Western blot analysis. Particulars: dose 3-9 µM. Format: functional, cell-based. (In general: Immunoblotting shows a protein as a band on a membrane.)
Series [3] can be described thus: Antiproliferative activity against mouse A261 cells assessed as inhibition of cell growth. The class given is functional, cell-based.
Series [4] deals with A549. Put plainly: Antiproliferative activity against human A549 cells assessed as inhibition of cell growth. Format: functional, cell-based.
A short description of series [5]: Antiproliferative activity against human A549R cells assessed as inhibition of cell growth. Format: functional, cell-based.
Series [6] can be described thus: Selectivity index, ratio of IC50 for cytotoxicity against HLF cells to IC50 for antiproliferative activity against human A549 cells. Particulars: HLF cells versus A549 cells, read-out: Ratio IC50. The class given is cell-based.
Series [7] can be described thus: Cytotoxicity against HLF cells assessed as inhibition of cell growth. The class given is toxicity, cell-based. Particulars: human.
For series [8], the target named is T1, Alpha-ketoglutarate-dependent dioxygenase FTO (Homo sapiens, UniProt Q9C0B1). Briefly: Inhibition of FTO in human A549 cells assessed as upregulation of p53 protein expression incubated for 24 hrs by Western blot analysis. Particulars: dose 3-9 µM. The class given is cell-based.
Target sequence in this assay (Q9C0B1 whole entry, looked up): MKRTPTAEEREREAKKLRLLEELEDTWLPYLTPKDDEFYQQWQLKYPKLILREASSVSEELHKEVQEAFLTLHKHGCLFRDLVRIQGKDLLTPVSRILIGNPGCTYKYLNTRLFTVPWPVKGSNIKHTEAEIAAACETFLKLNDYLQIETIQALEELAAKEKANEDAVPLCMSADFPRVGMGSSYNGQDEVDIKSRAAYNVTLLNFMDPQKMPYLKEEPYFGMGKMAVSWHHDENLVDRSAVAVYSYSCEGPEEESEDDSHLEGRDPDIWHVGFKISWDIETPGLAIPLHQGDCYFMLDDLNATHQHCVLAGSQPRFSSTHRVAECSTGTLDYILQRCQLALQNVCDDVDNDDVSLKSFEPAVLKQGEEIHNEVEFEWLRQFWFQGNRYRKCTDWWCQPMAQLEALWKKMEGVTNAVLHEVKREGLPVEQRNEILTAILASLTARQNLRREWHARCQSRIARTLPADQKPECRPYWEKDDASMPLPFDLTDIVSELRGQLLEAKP
In series [9] the target is T1, Alpha-ketoglutarate-dependent dioxygenase FTO. Put plainly: Inhibition of human FTO assessed as reduction in enzyme-mediated demethylation of m6A-ssDNA at 12.5 uM incubated for 2 hrs by PAGE analysis.
Target sequence in this assay (Q9C0B1 whole entry, looked up): as above
The subject of series [10] is A549. Put plainly: Effect on FTO expression in human A549 cells at 3 to 9 uM incubated for 24 hrs by Western blot analysis. The class given is functional, cell-based. Particulars: dose 3-9 µM.
Series [11] has as its system A549. Briefly: Induction of autophagy in human A549 cells assessed as upregulation of LC3-II protein expression at 3 to 9 uM incubated for 24 hrs by Western blot analysis. Format: functional, cell-based. Particulars: dose 3-9 µM.
Another series has as its system NB-4. Briefly: Antiproliferative activity against human NB4 cells assessed as inhibition of cell growth. The class given is functional, cell-based.
Series [12] addresses T1, Alpha-ketoglutarate-dependent dioxygenase FTO. Put plainly: Inhibition of human FTO assessed as reduction in enzyme-mediated demethylation of m6A-ssDNA incubated for 2 hrs by PAGE analysis.
Target sequence in this assay (Q9C0B1 whole entry): as the sequence (Q9C0B1 whole entry, looked up) above
Series [13] has the same target. Put plainly: Inhibition of FTO in human A549 cells assessed as upregulation of gammaH2AX protein expression at 3 to 9 uM incubated for 24 hrs by Western blot analysis. The class given is cell-based. Particulars: dose 3-9 µM.
Target sequence in this assay (Q9C0B1 whole entry, looked up): as above

We go through 14 compounds from ChEMBL document CHEMBL5370685, “Novel 1,8-Naphthalimide Derivatives As Antitumor Agents and Potent Demethylase Inhibitors” (ACS Med Chem Lett, 2023).

pIC50: −log10 of the molar value. Calls of active or inactive are those of the source. The calls are words filed in the database; no cut-off is given here.

What is called pIC50 is the IC50 on a negative log10 scale, so that one unit is a factor of ten. As to `CN(C)CCN1C(=O)c2cccc3cc(NC(=O)c4ccccn4)cc(c23)C1=O`, the outcome with A549 [1], in the series on A549 [2] and in the series with A549 [11] was Active. The pIC50 was 5.48 in series [3]; 5.55 in the series on A549 [4]; 5.35 in [5]; 5.00 in [7]; 5.82 with NB-4; 5.35 in [12]. In [6], the selectivity ratio turned out to be 3.5. Also, the inhibition entry in series [8] was “Dose-Dependent Effect”. Further, the inhibition result in [9] and in series [13] was “Active” throughout. For the same compound, in the series on A549 [10], the result was inactive.

For the compound `NCCN1C(=O)c2cccc3cc(NC(=O)c4ccccn4)cc(c23)C1=O`, the pIC50 in series [3] was 5.39; in the series on A549 [4], 5.28; in [5] it was 5.14; in the series with NB-4, 5.08.

As for `C=CC(=O)N(C)CCN1C(=O)c2cccc3cc([N+](=O)[O-])cc(c23)C1=O`, the negative-log IC50 (pIC50) (in series [3]; in the series with A549 [4]; in series [5]; in series [7]; in the series with NB-4) was < 4.70 throughout.

Take `C#CCN(C)CCN1C(=O)c2cccc3cc(N)cc(c23)C1=O`: the pIC50 (in [3]; in the series with A549 [4]; in series [5]; in series [7]; in the series on NB-4) was < 4.70 in each case.

Consider `C#CCCC1(CCNCCN2C(=O)c3cccc4cc(NC(=O)c5ccccn5)cc(c34)C2=O)N=N1`, for which the negative logarithm of the IC50 (pIC50) in series [3] was 5.07; in the series with A549 [4], < 4.70; in [5] it was < 4.70; in the series on NB-4, 4.97.

As for `CN(C)CCN1C(=O)c2cccc3cc([N+](=O)[O-])cc(c23)C1=O` [MITONAFIDE], the pIC50 in series [3] is 5.55; in the series with A549 [4], 5.82; in series [5], 5.74; in [7] it was 5.55; with NB-4 it was 5.47; in series [12], 4.46. Also, in [6], the selectivity ratio was 1.9.

On to `CNCCN1C(=O)c2cccc3cc(NC(=O)c4ccccn4)cc(c23)C1=O`, for which the pIC50 was 5.46 in [3], 5.54 with A549 [4], 5.14 in series [5] and 4.89 with NB-4.

In the case of `C=CC(=O)N(C)CCN1C(=O)c2cccc3cc(N)cc(c23)C1=O`, the pIC50 (in [3]; in the series on A549 [4]; in series [5]; in series [7]; in the series on NB-4) was < 4.70 in each case.

For the compound `C#CCN(C)CCN1C(=O)c2cccc3cc(NC(=O)C=C)cc(c23)C1=O`, the pIC50 is < 4.70 in series [3]; < 4.70 with A549 [4]; < 4.70 in series [5]; < 4.70 in series [7]; 4.86 with NB-4.

For the compound `CNCCN1C(=O)c2cccc3cc([N+](=O)[O-])cc(c23)C1=O`, the result in the series on A549 [1], in the series on A549 [2] and in the series with A549 [11] was Active. In addition, the pIC50 is 5.60 in [3]; 5.55 with A549 [4]; 5.21 in series [5]; 5.16 in series [7]; 5.15 in the series with NB-4; 5.24 in [12]. For the same compound, the selectivity ratio in series [6] is 2.5. Besides, the inhibition entry in series [8] is “Dose-Dependent Effect”. In addition, the inhibition result in series [9] and in [13] was “Active” in each case. In the series on A549 [10], the outcome was inactive.

As to `C#CCN(C)CCN1C(=O)c2cccc3cc([N+](=O)[O-])cc(c23)C1=O`, the pIC50 (in series [3]; in the series on A549 [4]; in series [5]; in [7]; in the series on NB-4) was < 4.70 each time.

Consider `CN(C)CCN1C(=O)c2cccc3cc(N)cc(c23)C1=O` [AMONAFIDE], for which the pIC50 is 5.04 in series [3]; 5.37 in the series on A549 [4]; 5.02 in series [5]; 5.06 in series [7]; 5.24 in the series on NB-4.

Regarding `O=C(Nc1cc2c3c(cccc3c1)C(=O)N(CCN1C(=O)C=CC1=O)C2=O)c1ccccn1`, the negative logarithm of the IC50 (pIC50) (in series [3]; in the series on A549 [4]; in series [5]; in the series with NB-4) was < 4.70 each time.

Regarding `C#CCCCCNCCN1C(=O)c2cccc3cc(NC(=O)c4ccccn4)cc(c23)C1=O`, the pIC50 in series [3] is 5.28; in the series with A549 [4] it was 5.33; in [5] it was 5.02; with NB-4 it was 5.01.
